In ChEMBL document CHEMBL1201862, “PubChem BioAssay data set” (2004):
The source made the active and inactive calls.

Key:
[1] = biological target: Heat shock 70 kDa protein 1A (Homo sapiens, UniProt P0DMV8); assay: inhibition of Hsp70 binding activity – biochemical, fluorescence polarization, SAR follow-up (AID 1072)
[2] = biological target: T1, Tyrosine-protein phosphatase non-receptor type 7 (Homo sapiens, UniProt P35236); format: functional
T1 sequence (P35236 whole entry): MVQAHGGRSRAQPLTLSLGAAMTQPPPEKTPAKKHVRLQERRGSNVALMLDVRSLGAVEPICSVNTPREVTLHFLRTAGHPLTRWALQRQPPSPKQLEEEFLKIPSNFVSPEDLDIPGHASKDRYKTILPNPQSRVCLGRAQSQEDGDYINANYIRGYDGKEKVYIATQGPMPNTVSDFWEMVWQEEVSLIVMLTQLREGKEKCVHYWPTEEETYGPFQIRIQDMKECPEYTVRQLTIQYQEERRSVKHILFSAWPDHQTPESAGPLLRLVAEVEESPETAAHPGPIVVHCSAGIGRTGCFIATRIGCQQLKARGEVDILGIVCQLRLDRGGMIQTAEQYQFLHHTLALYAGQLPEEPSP

[3] = biological target: Glyceraldehyde-3-phosphate dehydrogenase (Homo sapiens, UniProt P04406)
Sequence of Glyceraldehyde-3-phosphate dehydrogenase (P04406 whole entry): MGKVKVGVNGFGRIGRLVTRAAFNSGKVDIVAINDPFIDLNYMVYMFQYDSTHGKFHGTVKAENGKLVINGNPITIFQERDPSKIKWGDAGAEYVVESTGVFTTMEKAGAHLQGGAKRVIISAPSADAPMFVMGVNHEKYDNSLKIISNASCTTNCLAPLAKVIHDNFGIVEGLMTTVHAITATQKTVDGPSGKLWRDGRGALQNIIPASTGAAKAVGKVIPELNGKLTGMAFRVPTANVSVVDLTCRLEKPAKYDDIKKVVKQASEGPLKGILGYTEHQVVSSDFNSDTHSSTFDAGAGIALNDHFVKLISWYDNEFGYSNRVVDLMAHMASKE

[4] = biological target: T2, Dual specificity protein phosphatase 6 (Rattus norvegicus, UniProt Q64346)
T2 sequence (Q64346 whole entry): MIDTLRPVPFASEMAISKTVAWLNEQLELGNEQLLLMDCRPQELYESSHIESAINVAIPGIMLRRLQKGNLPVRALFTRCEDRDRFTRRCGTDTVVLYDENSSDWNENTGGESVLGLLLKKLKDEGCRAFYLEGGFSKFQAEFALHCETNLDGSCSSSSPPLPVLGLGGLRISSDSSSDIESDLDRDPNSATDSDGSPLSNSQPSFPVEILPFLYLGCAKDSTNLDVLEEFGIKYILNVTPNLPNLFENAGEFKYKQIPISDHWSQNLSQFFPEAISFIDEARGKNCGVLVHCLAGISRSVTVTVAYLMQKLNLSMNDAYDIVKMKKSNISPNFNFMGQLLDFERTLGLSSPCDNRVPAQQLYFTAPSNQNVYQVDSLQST

[5] = biological target: T2, Dual specificity protein phosphatase 6; format: functional
[6] = biological target: Heat shock cognate 71 kDa protein (Homo sapiens, UniProt P11142); assay: In Vitro Hsc70 Dose Response Fluorescence Polarization Assay. [Related pubchem assays: 1072 ]
Sequence of Heat shock cognate 71 kDa protein (P11142 whole entry): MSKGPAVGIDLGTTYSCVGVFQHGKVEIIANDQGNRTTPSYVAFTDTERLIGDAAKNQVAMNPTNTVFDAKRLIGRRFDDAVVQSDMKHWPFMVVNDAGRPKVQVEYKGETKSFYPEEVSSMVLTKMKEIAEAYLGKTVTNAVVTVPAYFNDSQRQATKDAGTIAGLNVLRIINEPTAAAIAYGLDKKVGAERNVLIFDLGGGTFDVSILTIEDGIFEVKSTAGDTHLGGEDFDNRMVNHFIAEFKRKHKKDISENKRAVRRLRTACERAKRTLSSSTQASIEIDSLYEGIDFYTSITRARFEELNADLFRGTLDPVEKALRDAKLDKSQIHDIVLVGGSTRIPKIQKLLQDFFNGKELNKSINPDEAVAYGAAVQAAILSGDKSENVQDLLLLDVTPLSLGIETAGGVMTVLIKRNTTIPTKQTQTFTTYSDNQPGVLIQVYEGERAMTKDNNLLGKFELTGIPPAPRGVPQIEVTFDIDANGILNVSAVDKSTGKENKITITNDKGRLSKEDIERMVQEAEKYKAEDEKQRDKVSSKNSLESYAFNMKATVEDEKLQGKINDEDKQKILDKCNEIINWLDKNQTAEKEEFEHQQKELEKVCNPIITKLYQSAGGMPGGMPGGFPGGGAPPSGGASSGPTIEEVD

[7] = cells
[8] = Luminescence-based counterscreen assay for KLF5 inhibitors: dose response cell-based high throughput screening assay to identify cytotoxic compounds using the IEC-6 intestinal epithelial cell line. [Related pubchem assays: 1700 (Primary screen.), 1834 (Confirmation screen.), 1858 (Summary AID.), 1905 (Counterscreen.)]; format: functional
[9] = toxicity toward HepG2 liver cells – cell-based, plate reader, cherry-pick, antagonist series, cytotoxicity control, dose response (AID 743416); format: functional
[10] = A549 cell cytotoxicity, dose response, cytotoxicity control, plate reader, cherry-pick, antagonist series (AID 743412); format: functional, cell-based
[11] = biological target: T3, Heat shock factor protein 1 (Mus musculus, UniProt P38532); assay: decrease of HSF1-responsive luciferase luminescence – cell-based, NIH3T3, dose retest, confirmation (AID 2382); format: functional;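 note: NIH3T3 fibroblasts with HSF1-driven luciferase reporter stressed by proteasome inhibitor MG132; luminescence from HSF1-driven luciferase expression after 8 hours of MG132 stress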
T3 sequence (P38532 whole entry): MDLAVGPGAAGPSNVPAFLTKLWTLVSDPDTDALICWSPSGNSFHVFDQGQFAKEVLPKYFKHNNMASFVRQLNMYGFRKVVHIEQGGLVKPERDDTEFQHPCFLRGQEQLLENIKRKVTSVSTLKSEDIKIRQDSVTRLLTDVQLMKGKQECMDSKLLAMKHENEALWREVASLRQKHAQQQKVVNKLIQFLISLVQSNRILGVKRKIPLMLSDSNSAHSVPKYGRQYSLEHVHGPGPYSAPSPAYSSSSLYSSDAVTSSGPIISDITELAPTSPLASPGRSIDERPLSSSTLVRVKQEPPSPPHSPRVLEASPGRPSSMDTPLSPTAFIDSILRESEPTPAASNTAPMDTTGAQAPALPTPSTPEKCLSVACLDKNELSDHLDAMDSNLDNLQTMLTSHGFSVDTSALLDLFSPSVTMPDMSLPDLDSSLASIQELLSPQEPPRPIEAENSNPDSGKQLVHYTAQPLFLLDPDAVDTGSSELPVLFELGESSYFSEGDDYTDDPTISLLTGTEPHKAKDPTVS

[12] = biological target: Paired box protein Pax-8 (Homo sapiens, UniProt Q06710); assay: PAX8 transcriptional activity inhibition in RMG-I – RMG-I cells, luciferase, cherry-pick, dose response (AID 687027); format: functional, cell-based;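 note: luciferase reporter driven by Pax8 target thyroperoxidase promoter measured by SteadyGlo luminescence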
Sequence of Paired box protein Pax-8 (Q06710 whole entry): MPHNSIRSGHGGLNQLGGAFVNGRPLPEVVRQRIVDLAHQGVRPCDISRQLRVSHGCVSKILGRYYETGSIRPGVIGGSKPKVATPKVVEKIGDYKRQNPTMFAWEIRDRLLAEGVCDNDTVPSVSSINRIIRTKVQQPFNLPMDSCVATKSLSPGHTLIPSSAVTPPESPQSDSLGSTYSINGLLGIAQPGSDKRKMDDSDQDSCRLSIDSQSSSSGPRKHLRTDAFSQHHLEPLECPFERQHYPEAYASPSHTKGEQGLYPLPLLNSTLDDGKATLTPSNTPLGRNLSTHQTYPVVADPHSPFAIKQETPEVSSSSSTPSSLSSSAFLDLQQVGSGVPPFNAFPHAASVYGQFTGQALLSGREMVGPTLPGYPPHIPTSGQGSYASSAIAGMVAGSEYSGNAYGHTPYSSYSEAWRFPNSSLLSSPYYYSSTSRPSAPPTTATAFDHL

[13] = blockers of bursicon-stimulated LGR2 cAMP reporter – cell-based, HEK293, CRE-luciferase reporter, cherry pick, set 2, dose response (AID 743343); format: functional;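 note: transfected cells were stimulated with diluted bursicon conditioned medium after compound addition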
[14] = Shn3 3'UTR reporter signal decrease – cell-based, Clone20 osteoblasts, firefly luciferase, cherry-pick, set 2, Schnurri-3 inhibitor project, dose response (AID 720490); format: functional;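 note: actives lower the luminescence signal as inhibitors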
[15] = blockade of melanocortin 4 receptor signaling – cell-based, plate reader, cherry pick, counter-screen for LGR2 antagonist project, dose response (AID 743444); format: functional;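 note: transfected HEK 293 cells stimulated with alpha-MSH peptide; potency of inhibitors of the alpha-MSH evoked signal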
[16] = HEK-293T viability loss after treatment – luminescence, T-cell screen hits, cytotoxicity control for TCR NF-kB inhibitor project, dose response (AID 489026); format: functional, cell-based;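 note: cells exposed to compound about 14 hours before the viability readout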
[17] = reduction of Shn3 3'UTR-driven luciferase in osteoblasts – cell-based, Clone20 osteoblasts, firefly luciferase, cherry-picked, dose response (AID 624132); format: functional;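 note: firefly luciferase luminescence from reporter carrying the Shn3 3'UTR in osteoblasts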
[18] = system: HEK293; assay: cells; format: functional, cell-based; details: Homo sapiens
[19] = system: HEK293; assay: inhibition of NOD1-driven NF-kB reporter – cell-based, luminescence, uHTS, primary screen (AID 1578); format: functional; details: Homo sapiens
[20] = biological target: Nucleotide-binding oligomerization domain-containing protein 2 (Homo sapiens, UniProt Q9HC29); assay: inhibition of NOD2-driven NF-kB reporter – cell-based, luminescence, uHTS, HEK293 (AID 1566); format: functional
Sequence of Nucleotide-binding oligomerization domain-containing protein 2 (Q9HC29 whole entry, the tested form may be a part): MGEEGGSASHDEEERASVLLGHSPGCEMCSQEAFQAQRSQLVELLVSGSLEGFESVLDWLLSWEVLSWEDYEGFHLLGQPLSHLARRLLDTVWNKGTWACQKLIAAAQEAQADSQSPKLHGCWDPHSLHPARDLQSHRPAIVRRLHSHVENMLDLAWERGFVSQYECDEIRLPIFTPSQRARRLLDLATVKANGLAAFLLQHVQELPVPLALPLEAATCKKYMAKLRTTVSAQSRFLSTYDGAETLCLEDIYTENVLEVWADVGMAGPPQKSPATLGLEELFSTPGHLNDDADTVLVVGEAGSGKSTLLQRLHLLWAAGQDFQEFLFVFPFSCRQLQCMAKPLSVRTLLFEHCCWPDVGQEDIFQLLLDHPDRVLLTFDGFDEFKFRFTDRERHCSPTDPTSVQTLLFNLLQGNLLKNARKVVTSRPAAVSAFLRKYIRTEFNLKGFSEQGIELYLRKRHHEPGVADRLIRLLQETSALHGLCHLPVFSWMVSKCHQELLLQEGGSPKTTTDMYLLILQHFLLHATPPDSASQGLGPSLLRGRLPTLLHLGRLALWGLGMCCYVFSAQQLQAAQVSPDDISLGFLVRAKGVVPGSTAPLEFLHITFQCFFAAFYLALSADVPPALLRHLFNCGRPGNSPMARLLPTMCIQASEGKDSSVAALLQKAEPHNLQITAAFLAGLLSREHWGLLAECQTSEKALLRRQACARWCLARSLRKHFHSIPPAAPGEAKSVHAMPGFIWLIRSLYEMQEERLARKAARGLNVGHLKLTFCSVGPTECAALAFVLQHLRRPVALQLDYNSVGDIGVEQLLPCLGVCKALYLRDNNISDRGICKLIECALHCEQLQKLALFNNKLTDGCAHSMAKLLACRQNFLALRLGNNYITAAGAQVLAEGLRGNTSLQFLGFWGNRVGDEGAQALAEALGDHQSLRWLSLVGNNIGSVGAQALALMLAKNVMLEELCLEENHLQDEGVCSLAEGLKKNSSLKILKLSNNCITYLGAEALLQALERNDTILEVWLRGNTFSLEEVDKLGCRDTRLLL

[21] = system: HEK293; assay: cells; format: functional, cell-based; details: Homo sapiens; remark: listed apart in the source
[22] = system: HEK293; assay: cells; format: functional, cell-based; details: Homo sapiens; remark: listed apart in the source
[23] = system: HEK293; assay: NOD2 signaling inhibitors in MDP-stimulated cells, cell-based, uHTS, luminescence (AID 2001); format: functional; details: Homo sapiens
[24] = biological target: T4, Zinc finger protein mex-5 (Caenorhabditis elegans, UniProt Q9XUB2); assay: potency of MEX-5 RNA-binding blockers – biochemical, C. elegans, fluorescence polarization, dose response (AID 1960)
T4 sequence (Q9XUB2 whole entry): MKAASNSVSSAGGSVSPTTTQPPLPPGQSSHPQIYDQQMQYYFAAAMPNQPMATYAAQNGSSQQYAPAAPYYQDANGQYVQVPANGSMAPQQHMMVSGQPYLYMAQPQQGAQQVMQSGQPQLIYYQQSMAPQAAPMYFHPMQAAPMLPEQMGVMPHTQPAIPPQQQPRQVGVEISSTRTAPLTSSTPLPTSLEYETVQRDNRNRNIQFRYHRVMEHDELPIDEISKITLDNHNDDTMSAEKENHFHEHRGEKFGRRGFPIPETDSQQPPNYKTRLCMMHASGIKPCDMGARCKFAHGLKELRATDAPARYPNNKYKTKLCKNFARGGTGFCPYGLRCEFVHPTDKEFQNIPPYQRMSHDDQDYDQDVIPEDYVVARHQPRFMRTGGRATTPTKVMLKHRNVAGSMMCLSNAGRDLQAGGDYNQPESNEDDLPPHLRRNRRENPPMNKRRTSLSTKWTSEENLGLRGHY

[25] = biological target: Induced myeloid leukemia cell differentiation protein Mcl-1 (Homo sapiens, UniProt Q07820); format: functional
Sequence of Induced myeloid leukemia cell differentiation protein Mcl-1 (Q07820 whole entry, the tested form may be a part): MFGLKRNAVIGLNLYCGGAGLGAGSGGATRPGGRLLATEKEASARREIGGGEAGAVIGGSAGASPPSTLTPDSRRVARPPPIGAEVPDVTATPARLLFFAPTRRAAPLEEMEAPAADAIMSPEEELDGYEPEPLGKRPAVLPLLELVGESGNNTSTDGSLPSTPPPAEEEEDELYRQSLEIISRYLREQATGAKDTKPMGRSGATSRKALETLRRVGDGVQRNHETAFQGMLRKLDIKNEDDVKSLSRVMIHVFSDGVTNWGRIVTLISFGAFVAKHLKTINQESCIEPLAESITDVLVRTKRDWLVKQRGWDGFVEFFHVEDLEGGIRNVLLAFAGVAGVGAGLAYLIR

[26] = biological target: T5, RNA-binding protein pos-1 (Caenorhabditis elegans, UniProt G5EF15); assay: disruptors of C. elegans POS-1 RNA interaction – biochemical, fluorescence polarization, dose response (AID 1964);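 note: purified POS-1 fused to maltose binding protein made in E. coli; potency of compounds blocking POS-1 binding to fluorescent RNA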
T5 sequence (G5EF15 whole entry): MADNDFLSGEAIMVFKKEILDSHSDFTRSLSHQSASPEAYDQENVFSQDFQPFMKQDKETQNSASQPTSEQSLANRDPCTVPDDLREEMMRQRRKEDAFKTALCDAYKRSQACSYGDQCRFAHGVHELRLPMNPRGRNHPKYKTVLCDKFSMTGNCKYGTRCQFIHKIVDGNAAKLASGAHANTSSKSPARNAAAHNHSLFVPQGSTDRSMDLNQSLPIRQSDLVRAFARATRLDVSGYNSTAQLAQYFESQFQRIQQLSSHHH

[27] = biological target: T6, Estrogen receptor (Homo sapiens, UniProt P03372);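 note: potency for inhibiting coactivator peptide recruitment to the receptor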
T6 sequence (P03372 whole entry): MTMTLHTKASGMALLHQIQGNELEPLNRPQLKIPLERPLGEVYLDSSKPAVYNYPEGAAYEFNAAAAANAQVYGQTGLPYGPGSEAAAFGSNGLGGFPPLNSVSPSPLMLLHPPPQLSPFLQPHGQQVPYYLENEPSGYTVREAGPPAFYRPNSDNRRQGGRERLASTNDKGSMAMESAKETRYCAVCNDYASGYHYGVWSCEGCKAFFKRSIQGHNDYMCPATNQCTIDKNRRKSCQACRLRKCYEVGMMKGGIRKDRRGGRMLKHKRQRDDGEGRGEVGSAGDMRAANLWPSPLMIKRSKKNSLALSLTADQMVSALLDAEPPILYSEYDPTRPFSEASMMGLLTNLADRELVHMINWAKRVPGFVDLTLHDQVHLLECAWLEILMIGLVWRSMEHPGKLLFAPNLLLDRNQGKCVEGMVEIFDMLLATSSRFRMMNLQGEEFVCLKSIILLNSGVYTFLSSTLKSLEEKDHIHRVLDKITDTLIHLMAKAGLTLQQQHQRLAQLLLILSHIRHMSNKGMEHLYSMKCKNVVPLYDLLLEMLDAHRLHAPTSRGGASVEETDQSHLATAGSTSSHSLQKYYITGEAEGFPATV

[28] = biological target: Estrogen receptor beta (Homo sapiens, UniProt Q92731); assay: blockers of SRC-3 recruitment to ERβ – biochemical, ELISA, streptavidin-HRP readout, orthogonal assay, confirmation (AID 1060)
Sequence of Estrogen receptor beta (Q92731 whole entry): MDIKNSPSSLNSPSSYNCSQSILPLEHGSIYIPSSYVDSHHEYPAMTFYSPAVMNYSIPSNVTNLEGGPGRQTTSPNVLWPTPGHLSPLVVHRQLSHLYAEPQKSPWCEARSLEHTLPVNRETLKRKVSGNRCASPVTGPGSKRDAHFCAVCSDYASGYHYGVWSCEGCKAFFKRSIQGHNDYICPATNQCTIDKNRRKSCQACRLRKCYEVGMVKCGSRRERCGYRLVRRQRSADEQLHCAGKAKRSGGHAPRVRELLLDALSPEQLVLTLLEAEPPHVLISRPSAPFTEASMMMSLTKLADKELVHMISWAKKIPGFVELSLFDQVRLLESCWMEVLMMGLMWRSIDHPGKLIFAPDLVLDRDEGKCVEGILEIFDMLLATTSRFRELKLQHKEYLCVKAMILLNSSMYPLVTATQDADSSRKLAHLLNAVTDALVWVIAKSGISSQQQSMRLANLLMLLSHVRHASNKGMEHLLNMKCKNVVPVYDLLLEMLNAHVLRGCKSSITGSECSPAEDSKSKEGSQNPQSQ

[29] = alpha-synuclein stem-loop luciferase translation blockers – H4 neuroglioma cells, luminescence, confirmation (AID 1988); format: functional, cell-based
[30] = luciferase reporter signal suppression in cells – H4 neuroglioma cells, luminescence, dose response (AID 1990); format: functional, cell-based
[31] = system: Streptococcus sp. 'group A'; assay: Streptococcus pyogenes SK(-)GAS viability under kanamycin – luminescence, BacTiterGlo, confirmation, counter-screen for streptokinase expression inhibitor project, dose response (AID 1900); format: functional, organism-based
[32] = Luminescence Cell-Based Dose Response HTS to Identify Inhibitors of 5'UTR Stem-Loop Driven Prion Protein mRNA Translation in H4 Neuroglioblastoma Cells. [Related pubchem assays: 1827 (Project Summary), 1813 (Primary HTS)]; format: functional
[33] = system: Streptococcus; assay: GAS UMAA2166 growth inhibition – luminescence, BacTiterGlo, counter-screen for streptokinase expression inhibitor project, dose response (AID 1915); format: functional, organism-based;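 note: potency for reduction of bacterial viability or growth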
[34] = biological target: Melanin-concentrating hormone receptor 1 (Homo sapiens, UniProt Q99705); assay: Late-stage fluorescence-based counterscreen for antagonists of the G-protein coupled receptor 7 (GPR7): cell-based dose response assay to identify antagonists of the melanin-concentrating hormone receptor 1 (MCHR1). [Related pubchem assays (depositor defined):AID1861, AID1880, AID1952, AID2148, AID2251, AID2257, AID485339]; format: functional;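 note: stimulated with 30 nM MCH peptide agonist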
Sequence of Melanin-concentrating hormone receptor 1 (Q99705 whole entry): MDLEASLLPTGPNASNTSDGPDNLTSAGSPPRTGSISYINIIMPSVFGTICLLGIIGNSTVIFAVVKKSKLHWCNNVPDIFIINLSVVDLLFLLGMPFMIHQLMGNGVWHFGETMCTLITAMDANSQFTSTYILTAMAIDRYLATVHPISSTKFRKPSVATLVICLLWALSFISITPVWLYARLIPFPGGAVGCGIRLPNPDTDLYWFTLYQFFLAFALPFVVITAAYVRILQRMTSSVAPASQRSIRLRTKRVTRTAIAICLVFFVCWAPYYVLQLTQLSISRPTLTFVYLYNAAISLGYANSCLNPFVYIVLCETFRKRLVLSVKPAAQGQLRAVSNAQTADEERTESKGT

[35] = biological target: ORF 73 (Human herpesvirus 8, UniProt O40947); assay: KSHV LANA DNA-binding disruption – biochemical, fluorescence polarization, cherry-picked samples, dose response (AID 504725); parameters: species or system Human gammaherpesvirus 8;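 note: fluorescence polarization of a labeled DNA duplex reporting LANA DNA binding; potency is for inhibitors that block LANA binding to the DNA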
[36] = biological target: T7, Cytochrome P450 2D6 (Homo sapiens, UniProt P10635);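 note: CYP2D6 member of a cytochrome P450 panel assay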
T7 sequence (P10635 whole entry): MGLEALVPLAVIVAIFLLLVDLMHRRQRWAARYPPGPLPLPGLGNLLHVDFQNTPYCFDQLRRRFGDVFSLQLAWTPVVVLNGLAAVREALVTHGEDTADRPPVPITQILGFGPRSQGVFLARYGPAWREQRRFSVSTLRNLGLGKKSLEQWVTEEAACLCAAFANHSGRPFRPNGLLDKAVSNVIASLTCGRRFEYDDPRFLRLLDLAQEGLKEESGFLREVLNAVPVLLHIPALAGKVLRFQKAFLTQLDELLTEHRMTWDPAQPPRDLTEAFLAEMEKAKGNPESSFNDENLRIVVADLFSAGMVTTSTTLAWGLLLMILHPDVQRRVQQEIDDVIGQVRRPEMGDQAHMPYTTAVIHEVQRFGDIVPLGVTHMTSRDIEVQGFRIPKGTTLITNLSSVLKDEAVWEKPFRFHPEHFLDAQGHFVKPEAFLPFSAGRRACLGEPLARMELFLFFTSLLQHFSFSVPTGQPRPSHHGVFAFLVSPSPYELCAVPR

[37] = biological target: T7, Cytochrome P450 2D6; remark: listed apart in the source

Sequence of Heat shock 70 kDa protein 1A (P0DMV8 whole entry): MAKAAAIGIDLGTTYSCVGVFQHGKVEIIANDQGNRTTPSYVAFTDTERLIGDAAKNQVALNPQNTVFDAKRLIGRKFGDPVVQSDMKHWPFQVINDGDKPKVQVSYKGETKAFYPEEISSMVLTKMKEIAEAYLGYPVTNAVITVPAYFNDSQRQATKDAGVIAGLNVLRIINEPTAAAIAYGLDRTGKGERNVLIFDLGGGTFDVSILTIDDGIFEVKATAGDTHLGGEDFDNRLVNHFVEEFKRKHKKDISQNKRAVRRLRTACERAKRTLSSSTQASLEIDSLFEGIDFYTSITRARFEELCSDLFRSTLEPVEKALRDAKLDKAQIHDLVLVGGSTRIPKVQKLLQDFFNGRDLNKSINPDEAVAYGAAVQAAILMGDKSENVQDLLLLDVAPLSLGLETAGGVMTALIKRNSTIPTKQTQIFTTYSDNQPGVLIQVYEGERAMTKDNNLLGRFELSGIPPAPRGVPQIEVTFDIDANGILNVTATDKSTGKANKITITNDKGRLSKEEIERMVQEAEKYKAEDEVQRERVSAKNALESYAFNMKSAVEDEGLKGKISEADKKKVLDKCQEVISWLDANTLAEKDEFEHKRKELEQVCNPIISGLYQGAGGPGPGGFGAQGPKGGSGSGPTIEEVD

O=C(Oc1ccc2c(c1)C1C=CCC1C(C(=O)O)N2)c1ccc(Cl)cc1Cl (stereo not drawn)
IC50 [1]: > 100 µM (not active)
IC50 [2]: 2.38 µM (active)
IC50 [3]: > 100 µM (not active)
IC50 [4]: 17 µM (active)
IC50 [5]: 15.6 µM (active)
IC50 [6]: > 100 µM (not active)

CCN(c1ccccc1)S(=O)(=O)c1ccc(Cl)c(NC(=O)c2ccc(O)nn2)c1
IC50 [7]: 32.8 µM (active)

CC1=C2C(=O)C3C(CC=C4CC(O)CCC43C)C2CCC12OC1CC(C)CNC1C2C (stereo not drawn)
IC50 [7]: 4.18 µM (active)

CC(C)(C)C(=O)Nc1ccc(NC(=O)c2ccco2)nc1
IC50 [8]: > 39.8 µM (not active)
AC50 [9]: > 52 µM (inactive)
AC50 [10]: > 52 µM (inactive)
EC50 [11]: < 160 nM (active)
AC50 [12]: 1.26 µM (active)
AC50 [13]: 243 nM (active)
AC50 [14]: 2.64 µM (active)
AC50 [15]: 245 nM (active)
IC50 [16]: > 80 µM (inactive)
AC50 [17]: 1.17 µM (active)

Cn1c(Sc2ccc(Cl)cc2)c(C=O)c2ccccc21
IC50 [18]: 748 nM (active)
EC50 [19]: 1.63 µM (active)
EC50 [20]: 2.17 µM (active)
IC50 [21]: > 20 µM (inactive)
IC50 [22]: > 20 µM (inactive)
IC50 [23]: 1.15 µM (active)

O=C(O)C1Nc2c(C(=O)N3CCOCC3)cccc2C2C=CCC12 (stereo not drawn)
EC50 [24]: 21.3 µM (inconclusive)
IC50 [25]: 2.78 µM (not active)
IC50 [1]: > 100 µM (not active)
EC50 [26]: 45.1 µM (active)
IC50 [3]: > 100 µM (not active)
IC50 [27]: 15.9 µM (active)
IC50 [28]: 40.7 nM (not active)
IC50 [6]: > 100 µM (not active)

Cc1ccc(OCCn2c(NC(=O)c3ccco3)nc3ccccc32)cc1
IC50 [18]: 4870 nM (active)
EC50 [19]: 3.15 µM (active)
EC50 [29]: 10.3 µM (active)
EC50 [20]: > 20 µM (inactive)
IC50 [21]: > 20 µM (inactive)
EC50 [30]: 13.1 µM (active)
EC50 [31]: 1.6 µM (active)
IC50 [22]: > 20 µM (inactive)
IC50 [23]: 2.41 µM (active)
EC50 [32]: 15.8 µM (active)
EC50 [33]: 3.87 µM (active)

CC(C)c1ccc(-n2ncc(Cl)c(Oc3ccc(Cl)c(Cl)c3)c2=O)cc1
IC50 [34]: 15.9 µM (inactive)

COc1ccc(Oc2c(Cl)cnn(-c3cc(C)ccc3C)c2=O)cc1
IC50 [34]: 12.2 µM (inactive)

OCCN(CCO)c1nc(N2CCCCC2)c2nc(N(CCO)CCO)nc(N3CCCCC3)c2n1 [DIPYRIDAMOLE]
AC50 [35]: 8.87 µM (active)
AC50 [36]: 10 µM (active)
AC50 [37]: inactive
